Assays:
[1] = Biolocalization two hours after delivery into a drilled hole in the femur; type: in vivo, Sprague Dawley rat; conditions: rat femur
Description: Ho-166 in 0.1M HCl was obtained from MURR. The pH was measured with pH paper showing a pH of about 1. A miniature drill was used to create a hole in the femur of an anesthetized Sprague Dawley rat. A miniature pump was used to deliver 3 μL of Ho-166 solution into the hole created by the drill. Two hours after the injection of the dose the rat was sacrificed and dissected. The amount of activity found in the site of injection was 5% of the injected dose. 52% of the dose was found in the liver and 23% of the dose was found in the rest of the bone.
A miniature drill was used to create a hole in the femur of an anesthetized Sprague Dawley rat. A miniature pump was used to deliver 2 μL of Sm-153-DOTMP solution into the hole created by the drill. Two hours after the injection of the dose the rat was sacrificed and dissected. The amount of activity found in the site of injection was 9% of the injected dose and about 20% was found in the rest of the bone. An average of 65% of the injected dose was found in the urine.

[2] = Biolocalization after injection into synovial cavity of right hind knee; type: in vivo, Sprague Dawley rats; conditions: Rats
Description: One method of this invention uses a therapeutically-effective quantity of the compositions of Formula (II) and Formula (III), administered in one or more locations into or near a Non-intracavitary, undesirable tissue mass (e.g. cancer) in an animal or human in need of such treatment. Another method of this invention uses a therapeutically-effective quantity of these hydroxy carbonates, administered in one or more locations into or near the synovial cavity to treat arthritis. In either method the treatment is such that a major portion of the dose remains at the site of injection (defined as greater than about 90% of the dose remaining at the site after two half-lives of the radioisotopes; more preferably greater than about 95% of the dose remaining at the site after 2 half-lives of the radioactive isotopes; and most preferably greater than about 98% of the dose remaining at the site after 2 half-lives of the radioisotopes) as determined by biolocalization data obtained by dissection of an animal (e.g. BALB/c mice or Sprague Dawley rats); wherein the values are corrected for radioactive decay. It is also important to recognize that deposition of radioactivity in non-target organs and tissues can impact the safety and efficacy of the treatment. Ideally, in mice, less than about 1% remaining in the carcass (including the contralateral femur) and less than about 0.2% in the liver plus the kidneys and, in rats, less than about 1% in the skeletal structure and less than about 0.2% in the liver plus the kidneys. In the case of mice (injection into the gastrocnemius muscle of the right hind leg is used as a model for Non-Intracavitary tumors), all tissues, including the whole carcass, and bedding were collected such that 100% of the radioactivity was accounted for. In the case of rats (injections were directly into the synovial cavity), the size of the animal precluded counting the entire carcass. Therefore samples of blood, muscle, and bone (contralateral femur) were collected and the total masses of those tissues were calculated. The tissue masses were calculated based on rat body weight using equations fitted to data in the literature [Henry H. Donaldson, The Rat: Reference Tables and Data for the Albino Rat and the Norway Rat, (1915)].
Six male Sprague Dawley rats, under Isoflurane anesthesia, were each injected with 20 μL of the Composition prepared according to the procedure of Example 1 into the synovial cavity of the right hind knee using a ⅓ cc insulin syringe. The dose was deposited into the cavity via needle insertion through the skin. The rats were individually housed in cages with absorbent paper under a wire mesh bottom. […]
Due to the size of the animals, the carcass was not collected and measured as was done for the mice. The % ID in the skeletal structure, muscular structure and blood in the body were calculated from the activity in samples of those tissues (left femur, left thigh, blood) and rat body weight using equations fitted to data in the literature as was described earlier.
Samples were counted for radioactivity on a PerkinElmer Wizard automated NaI well detector. The data, shown below in Table 1, indicate the average percent injected dose in each tissue/sample.

## O=P([O-])(O)CN1CCN(CP(=O)([O-])O)CCN(CP(=O)(O)O)CCN(CP(=O)([O-])O)CC1.[153Sm+3] [Sm-153-DOTMP]
[1]
  amount of activity found in the site of injection: 9 % of the injected dose
[1]; two hours after injection
  dose found in the rest of the bone: about 20%
[1]; two hours after injection, average
  injected dose found in the urine: 65 % of the injected dose

## O=C([O-])CN(CCN(CC(=O)[O-])CC(=O)[O-])CCN(CC(=O)[O-])CC(=O)[O-].[117Sn+4].[H+] [Example K]
[2]; 14 days
  Average % ID, Calculated Blood: 0.0 % ID
  Average % ID, Calculated Muscle: 0.3 % ID
  Average % ID, Calculated Skeleton: 28.0 % ID
  Average % ID, Heart: 0.0 % ID
  Average % ID, Kidney: 0.4 % ID
  Average % ID, Leg (injection site): 31.2 % ID
  Average % ID, Lg. Intestine: 0.0 % ID
  Average % ID, Liver: 0.4 % ID
  Average % ID, Lung: 0.0 % ID
  Average % ID, Sm. Intestine: 0.0 % ID
  Average % ID, Spleen: 0.0 % ID
  Average % ID, Stomach: 0.0 % ID
  Average % ID, Urine/Feces: 39.5 % ID
[2]; 28 days
  Average % ID, Calculated Blood: 0.0 % ID
  Average % ID, Calculated Muscle: 0.1 % ID
  Average % ID, Calculated Skeleton: 30.0 % ID
  Average % ID, Heart: 0.0 % ID
  Average % ID, Kidney: 0.3 % ID
  Average % ID, Leg (injection site): 22.6 % ID
  Average % ID, Lg. Intestine: 0.0 % ID
  Average % ID, Liver: 0.4 % ID
  Average % ID, Lung: 0.0 % ID
  Average % ID, Sm. Intestine: 0.0 % ID
  Average % ID, Spleen: 0.0 % ID
  Average % ID, Stomach: 0.0 % ID
  Average % ID, Urine/Feces: 46.6 % ID

## [166Ho+3].[Cl-].[Cl-].[Cl-] [Example G, Ho-166 Chloride]
[1]
  amount of activity found in the site of injection: 5 % of the injected dose
[1]; two hours after injection
  dose found in the liver: 52 % of the dose
  dose found in the rest of the bone: 23%

From US10918746B2, “Radioactive compositions and methods for their therapeutic use” (IsoTherapeutics Group LLC, priority 2011, dated 2021)
